For assay [1], the system named is HCV genotype 1b (Con1) replicon in HUH-7 cells. As to the kind of experiment: HCV replicon luciferase reporter assay, genotype 1b. Type of assay: cell-based. The following applies: Hepatitis C virus, Huh-7, 72 h, HCV genotype 1b replicon luciferase assay, 3 days incubation, range class, read-out: LE_1b (EC50, range). An outline of the steps: (§1)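 Replicon inhibition for both genotypes was measured as Renilla luciferase signal (EnduRen, 7.5 μM final, 2 h) after 3-day, 37° C exposure of replicon-bearing HUH-7 cells in 4% FCS DMEM, 0.5% DMSO. The 1b construct carries S1179I; the 1a H77 construct carries P1496L and S2204I. Twenty-point, 3-fold dilutions were fitted four-parametrically for EC50, and CC50 was taken from multiplexed Cell Titer-Blue.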
(In general: In antiviral work, replicon cells carry a viral genome segment that copies itself.)

For assay [2], the system named is HCV genotype 1a (H77 strain) replicon in HUH-7 cells. In words: HCV replicon luciferase reporter assay, genotype 1a. It counts as cell-based. Conditions: Hepatitis C virus, Huh-7, 72 h, HCV genotype 1a replicon luciferase assay, 3 days incubation, range class, read-out: LE_1a (EC50, range). A digest of the protocol: as §1

`COc1cc(F)cc2c(O[C@@H]3C[C@H]4C(=O)N[C@]5(C(=O)NS(=O)(=O)C6(C)CC6)C[C@H]5/C=C\CC[C@H](C)C[C@@H](C)[C@H](NC(=O)OCC5(C)CC5)C(=O)N4C3)nccc12` [Compound 3161, (1-methylcyclopropyl)methyl ((2R,6S,7R,9S,13aS,14aR,16aS,Z)-2-((7-fluoro-5-methoxyisoquinolin-1-yl)oxy)-7,9-dimethyl-14a-(((1-methylcyclopropyl)sulfonyl)carbamoyl)-5,16-dioxo-1,2,3,5,6,7,8,9,10,11,13a,14,14a,15,16,16a-hexadecahydrocyclopropa[e]pyrrolo[1,2-a][1,4]diazacyclopentadecin-6-yl)carbamate]: the figures for the EC50 in assay [1] and in assay [2] were less than 5.46 nM and 4.82 to 103 nM, respectively.

Consider `COc1cc(F)cc2c(O[C@@H]3C[C@H]4C(=O)N[C@]5(C(=O)NS(=O)(=O)C6(C)CC6)C[C@H]5/C=C\CC[C@@H](C)C[C@@H](C)[C@H](NC(=O)OCC5(C)CC5)C(=O)N4C3)nccc12` [Compound 3162, (1-methylcyclopropyl)methyl ((2R,6S,7R,9R,13aS,14aR,16aS,Z)-2-((7-fluoro-5-methoxyisoquinolin-1-yl)oxy)-7,9-dimethyl-14a-(((1-methylcyclopropyl)sulfonyl)carbamoyl)-5,16-dioxo-1,2,3,5,6,7,8,9,10,11,13a,14,14a,15,16,16a-hexadecahydrocyclopropa[e]pyrrolo[1,2-a][1,4]diazacyclopentadecin-6-yl)carbamate], for which the EC50 in assay [1] and in assay [2] was less than 5.46 nM each time.

Turning to `COc1cc(F)cc2c(O[C@@H]3C[C@H]4C(=O)N[C@]5(C(=O)NS(=O)(=O)C6CC6)C[C@H]5/C=C\CC[C@H](C)C[C@@H](C)[C@H](NC(=O)OC(C)(C)C)C(=O)N4C3)nccc12` [Compound 3163, tert-butyl ((2R,6S,7R,9S,13aS,14aR,16aS,Z)-14a-((cyclopropylsulfonyl)carbamoyl)-2-((7-fluoro-5-methoxyisoquinolin-1-yl)oxy)-7,9-dimethyl-5,16-dioxo-1,2,3,5,6,7,8,9,10,11,13a,14,14a,15,16,16a-hexadecahydrocyclopropa[e]pyrrolo[1,2-a][1,4]diazacyclopentadecin-6-yl)carbamate], the EC50 in assay [1] and in assay [2] was 4.82 to 103 nM throughout.

As to `COc1cc(F)cc2c(O[C@@H]3C[C@H]4C(=O)N[C@]5(C(=O)NS(=O)(=O)C6CC6)C[C@H]5/C=C\CC[C@@H](C)C[C@@H](C)[C@H](NC(=O)OC(C)(C)C)C(=O)N4C3)nccc12` [Compound 3164, tert-butyl ((2R,6S,7R,9R,13aS,14aR,16aS,Z)-14a-((cyclopropylsulfonyl)carbamoyl)-2-((7-fluoro-5-methoxyisoquinolin-1-yl)oxy)-7,9-dimethyl-5,16-dioxo-1,2,3,5,6,7,8,9,10,11,13a,14,14a,15,16,16a-hexadecahydrocyclopropa[e]pyrrolo[1,2-a][1,4]diazacyclopentadecin-6-yl)carbamate], the EC50 in assay [1] and in assay [2] was less than 5.46 nM throughout.

On to `COc1cc(F)cc2c(O[C@@H]3C[C@H]4C(=O)N[C@]5(C(=O)NS(=O)(=O)C6CC6)C[C@H]5/C=C\CC[C@H](C)C[C@@H](C)[C@H](NC(=O)OC(C)(C)C(F)(F)F)C(=O)N4C3)nccc12` [Compound 3165, 1,1,1-trifluoro-2-methylpropan-2-yl((2R,6S,7R,9S,13aS,14aR,16aS,Z)-14a-((cyclopropylsulfonyl)carbamoyl)-2-((7-fluoro-5-methoxyisoquinolin-1-yl)oxy)-7,9-dimethyl-5,16-dioxo-1,2,3,5,6,7,8,9,10,11,13a,14,14a,15,16,16a-hexadecahydrocyclopropa[e]pyrrolo[1,2-a][1,4]diazacyclopentadecin-6-yl)carbamate], for which the EC50 in assay [1] and in assay [2] was 4.82 to 103 nM throughout.

`COc1cc(F)cc2c(O[C@@H]3C[C@H]4C(=O)N[C@]5(C(=O)NS(=O)(=O)C6CC6)C[C@H]5/C=C\CC[C@@H](C)C[C@@H](C)[C@H](NC(=O)OC(C)(C)C(F)(F)F)C(=O)N4C3)nccc12` [Compound 3166, 1,1,1-trifluoro-2-methylpropan-2-yl((2R,6S,7R,9R,13aS,14aR,16aS,Z)-14a-((cyclopropylsulfonyl)carbamoyl)-2-((7-fluoro-5-methoxyisoquinolin-1-yl)oxy)-7,9-dimethyl-5,16-dioxo-1,2,3,5,6,7,8,9,10,11,13a,14,14a,15,16,16a-hexadecahydrocyclopropa[e]pyrrolo[1,2-a][1,4]diazacyclopentadecin-6-yl)carbamate]: the EC50 in assay [1] and in assay [2] was less than 5.46 nM each time.

With `COc1cc(F)cc2c(O[C@@H]3C[C@H]4C(=O)N[C@]5(C(=O)NS(=O)(=O)C6CC6)C[C@H]5/C=C\CC[C@H](C)C[C@@H](C)[C@H](NC(=O)O[C@@H]5C[C@@H]6C[C@@H]6C5)C(=O)N4C3)nccc12` [Compound 3167, (1R,3r,5S)-bicyclo[3.1.0]hexan-3-yl((2R,6S,7R,9S,13aS,14aR,16aS,Z)-14a-((cyclopropylsulfonyl)carbamoyl)-2-((7-fluoro-5-methoxyisoquinolin-1-yl)oxy)-7,9-dimethyl-5,16-dioxo-1,2,3,5,6,7,8,9,10,11,13a,14,14a,15,16,16a-hexadecahydrocyclopropa[e]pyrrolo[1,2-a][1,4]diazacyclopentadecin-6-yl)carbamate], the results for the EC50 in assay [1] and in assay [2] were less than 5.46 nM and 4.82 to 103 nM, respectively.

With `COc1cc(F)cc2c(O[C@@H]3C[C@H]4C(=O)N[C@]5(C(=O)NS(=O)(=O)C6CC6)C[C@H]5/C=C\CC[C@@H](C)C[C@@H](C)[C@H](NC(=O)O[C@@H]5C[C@@H]6C[C@@H]6C5)C(=O)N4C3)nccc12` [Compound 3168, (1R,3r,5S)-bicyclo[3.1.0]hexan-3-yl((2R,6S,7R,9R,13aS,14aR,16aS,Z)-14a-((cyclopropylsulfonyl)carbamoyl)-2-((7-fluoro-5-methoxyisoquinolin-1-yl)oxy)-7,9-dimethyl-5,16-dioxo-1,2,3,5,6,7,8,9,10,11,13a,14,14a,15,16,16a-hexadecahydrocyclopropa[e]pyrrolo[1,2-a][1,4]diazacyclopentadecin-6-yl)carbamate], the EC50 in assay [1] and in assay [2] was less than 5.46 nM throughout.

`COc1cc(F)cc2c(O[C@@H]3C[C@H]4C(=O)N[C@]5(C(=O)NS(=O)(=O)C6CC6)C[C@H]5/C=C\CC[C@H](C)C[C@@H](C)[C@H](NC(=O)O[C@H](C)C(F)(F)F)C(=O)N4C3)nccc12` [Compound 3169, (R)-1,1,1-trifluoropropan-2-yl ((2R,6S,7R,9S,13aS,14aR,16aS,Z)-14a-((cyclopropylsulfonyl)carbamoyl)-2-((7-fluoro-5-methoxyisoquinolin-1-yl)oxy)-7,9-dimethyl-5,16-dioxo-1,2,3,5,6,7,8,9,10,11,13a,14,14a,15,16,16a-hexadecahydrocyclopropa[e]pyrrolo[1,2-a][1,4]diazacyclopentadecin-6-yl)carbamate]: the results for the EC50 in assay [1] and in assay [2] were less than 5.46 nM and 4.82 to 103 nM, respectively.

Source of the values: US9499550B2 (BRISTOL-MYERS SQUIBB COMPANY, priority 2012, dated 2016).
